The values that follow come from patent US6462069B2, “Compounds, pharmaceutical compositions, and methods for inhibiting protein kinases” (Agouron Pharmaceuticals, Inc., priority 2000, dated 2002).

As a reminder, the inhibition is the change of the read-out against control, counted positive when it falls.

One test concerns the target T1, CDK2/cyclin A complex (Homo sapiens, UniProt P24941).
T1 construct: made in house; host or cells: CDK2: insect cells (baculovirus); cyclin A: E. coli
Kind of test: Inhibition of CDK2/Cyclin A retinoblastoma kinase activity. The class given is biochemical. Conditions: apparent Ki. As to the method:
(§1) Cyclin-dependent kinase activity was measured by quantifying the enzyme-catalyzed, time-dependent incorporation of radioactive phosphate from [^32P]ATP or [^33P]ATP into a protein substrate. Unless noted otherwise, assays were performed in 96-well plates in a total volume of 50 μL, in the presence of 10 mM HEPES (N-[2-hydroxyethyl]piperazine-N′-[2-ethanesulfonic acid]) (pH 7.4). 10 mM MgCI2, 25 μM adenosine triphosphate (ATP), 1 mg/mL ovalbumin, 5 μg/mL leupeptin, 1 mM dithiothreitol, 10 mM beta-glycerophosphate, 0.1 mM sodium vanadate, 1 mM sodium fluoride, 2.5 mM ethylene glycol-bis(β-aminoethyl ethKer)-N,N,N′N′-tetraacetic acid (EGTA), 2% (v/v) dimethylsulfoxide, and 0.03-0.4 μCi [^32/33P]ATP per reaction. Reactions were initiated with enzyme, incubated at 30° C. and terminated after 20 minutes by the addition ofethylenediaminetetraacetic acid (EDTA) to 250 mM. The phosphorylated substrate was then captured on a nitrocellulose or phosphocellulose membrane using a 96-well filtration manifold, and unincorporated radioactivity was removed by repeated washing with 0.85% phosphoric acid. Radioactivity was quantified by exposing the dried membranes to a phosphorimager.
(§2) Apparent Ki values were measured by assaying enzyme activity in the presence of different inhibitor compound concentrations and subtracting the background radioactivity measured in the absence of enzyme. Inhibition data were fit to an equation for competitive inhibition using Kaleidagraph (Synergy Software), or were fit to an equation for competitive tight-binding inhibition using the software KineTic (BioKin, Ltd.).
CDK2 was purified using published methodology (Rosenblatt et al., “Purification and Crystallization of Human Cyclin-dependent Kinase 2,” J. Mol. Biol., vol. 230, pp. 1317-1319 (1993)) from insect cells that had been infected with a baculovirus expression vector. […] Ki values were measured as described above.

The target of a further test is T2, CDK4/cyclin D3 complex (Homo sapiens, UniProt P11802).
T2 construct: made in house; host or cells: insect cells co-infected with baculovirus expression vectors
T2 sequence (P11802 whole entry): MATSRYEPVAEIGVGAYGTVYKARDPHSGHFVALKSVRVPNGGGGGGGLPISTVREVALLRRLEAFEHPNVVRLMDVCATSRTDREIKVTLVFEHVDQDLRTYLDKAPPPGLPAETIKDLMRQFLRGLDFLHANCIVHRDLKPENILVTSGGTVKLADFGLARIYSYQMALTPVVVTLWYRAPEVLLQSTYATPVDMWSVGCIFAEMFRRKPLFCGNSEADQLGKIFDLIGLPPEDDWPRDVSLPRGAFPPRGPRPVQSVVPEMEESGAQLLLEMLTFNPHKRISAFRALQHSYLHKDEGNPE
T2 sequence (P30281 whole entry partner): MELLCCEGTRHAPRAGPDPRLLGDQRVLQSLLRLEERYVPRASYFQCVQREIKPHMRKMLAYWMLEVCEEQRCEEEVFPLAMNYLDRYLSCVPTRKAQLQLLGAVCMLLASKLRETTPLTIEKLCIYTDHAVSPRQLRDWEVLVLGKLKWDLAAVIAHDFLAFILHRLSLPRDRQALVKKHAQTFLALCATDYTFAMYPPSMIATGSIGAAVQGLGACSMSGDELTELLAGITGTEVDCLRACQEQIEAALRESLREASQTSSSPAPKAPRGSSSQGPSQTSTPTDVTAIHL
Kind of test: Inhibition of CDK4/Cyclin D retinoblastoma kinase activity. It is filed as biochemical. The settings on record: apparent Ki. Here is the method: as §1, §2
A complex of human CDK4 and cyclin D3, or a complex of human CDK4 and genetically truncated (1-264) cyclin D3, was purified using traditional biochemical chromatographic techniques from insect cells that had been co-infected with the corresponding baculovirus expression vectors ((see e.g., Meijer and Kim, “Chemical Inhibitors of Cyclin-Dependent Kinases,” Methods in Enzymol,. vol. 283, pp. 113-128 (1997)). The enzyme complex (5 or 50 nM) was assayed with 0.3-0.5 μg of purified recombinant retinoblastoma protein fragment (Rb) as a substrate. The engineered Rb fragment (residues 386-928 of the native retinoblastoma protein; 62.3 kDa) contains the majority of the phosphorylation sites found in the native 106-kDa protein, as well as a tag of six histidine residues for ease of purification. Phosphorylated Rb substrate was captured by microfiltration on a nitrocellulose membrane and quantified using a phosphorimager as described above. For measurement of tight-binding inhibitors, the enzyme complex concentration was lowered to 5 nM, and the assay duration was extended to 60 minutes, during which the time-dependence of product formation was linear.

For another test, the system named is HCT 116 cell line. Description: Inhibition of cell growth, MTT tetrazolium salt assay. The class given is cell-based. Conditions: Homo sapiens, HCT116 cells; for IC50: 50% inhibition of growth, read-out: HCT116 IC 50. As to the method:
Inhibition of cell growth was measured using the tetrazolium salt assay, which is based on the ability of viable cells to reduce 3-(4,5-dimethylthiazol-2-yl)-2,5-[2H]-diphenyltetrazolium bromide (MTT) to formazan (Mossman, Journal of Immunological Methods, vol.65, pp. 55-58(1983)). The water-insoluble purple formazan product was then detected spectrophotometrically. The HCT 116 cell line was grown in 96-well plates. Cells were plated in the appropriate medium at a volume of 135 μl/well in McCoy's 5A Medium. Plates were incubated for four hours before addition of inhibitor compounds. Different concentrations of inhibitor compounds were added in 0.5% (v/v) dimethylsulfoxide (15 μL/well), and cells were incubated at 37° C. (5% CO2) for four to six days (depending on cell type). At the end of the incubation, MTT was added to a final concentration of 0.2 mg/mL, and cells were incubated for 4 hours more at 37° C. After centrifugation of the plates and removal of medium, the absorbance of the formazan (solubilized in dimethylsulfoxide) was measured at 540 nm. The concentration of inhibitor compound causing 50% inhibition of growth was determined from the linear portion of a semi-log plot of inhibitor concentration versus percentage inhibition. All results were compared to control cells treated only with 0.5% (v/v) dimethylsulfoxide.

In test [1] the target is T3, VEGF-R2 (VEGF-R2Δ50 construct) (Homo sapiens, UniProt P35968, DEL940-989/E990V).
T3 construct: VEGF-R2Δ50 contains residues 806-939 and 990-1171; made in house; host or cells: baculovirus/insect cell system
T3 sequence (P35968 with tags, fused parts or gaps DEL940-989/E990V limits assumed): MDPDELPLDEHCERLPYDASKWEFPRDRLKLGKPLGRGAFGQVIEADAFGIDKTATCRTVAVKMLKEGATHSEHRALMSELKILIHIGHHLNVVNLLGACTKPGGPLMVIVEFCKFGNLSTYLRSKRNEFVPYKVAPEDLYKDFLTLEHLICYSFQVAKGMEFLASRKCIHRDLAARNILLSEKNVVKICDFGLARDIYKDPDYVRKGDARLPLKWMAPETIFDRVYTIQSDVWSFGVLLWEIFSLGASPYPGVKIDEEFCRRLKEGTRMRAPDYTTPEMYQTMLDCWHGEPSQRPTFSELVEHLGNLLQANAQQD
Kind of test: VEGF-R2 assay. The class given is biochemical. The settings on record: read-out: Percent Inhibition VEGF. From the text: This construct determines the ability of a test compound to inhibit tyrosine kinase activity. A construct (VEGF-R2Δ50) of the cytosolic domain of human vascular endothelial growth factor receptor 2 (VEGF-R2) lacking the 50 central residues of the 68 residues of the kinase insert domain was expressed in a baculovirus/insect cell system. This construct is described by McTigue et al. in Structure, vol. 7, pp. 319-330 (1999) and co-pending U.S. patent application Ser. No. 09/390,326, filed Sep. 7, 1999. Of the 1356 residues of full-length VEGF-R2, VEGF-R2Δ50 contains residues 806-939 and 990-1171, and also one point mutation (E990V) within the kinase insert domain relative to wild-type VEGF-R2. […]
The production of ADP from ATP that accompanies phosphoryl transfer was coupled to oxidation of NADH using phosphoenolpyruvate (PEP) and a system having pyruvate kinase (PK) and lactic dehydrogenase (LDH). The oxidation of NADH was monitored by following the decrease of absorbance at 340 nm (e340=6.22 cm^−1 mM^−1) using a Beckman DU 650 spectrophotometer. […] Ki values were determined by measuring enzyme activity in the presence of varying concentrations of test compounds. The data were analyzed using Enzyme Kinetic and Kaleidagraph software.
Formation of phosphogastrin was monitored using biotinylated gastrin peptide (1-17) as substrate. […]

Turning to `NS(=O)(=O)c1ccc(Nc2cc(-c3csc4cc(O)ccc34)[nH]n2)cc1` [Compound W, 4-[5-(6-Hydroxy-benzo[b]Thiophen-3-yl)-1H-pyrazol-3-ylamino]-Benzenesulfonamide], the Ki on CDK2/cyclin A complex turned out to be 0.016 µM; on CDK4/cyclin D3 complex, 0.9 µM. Also, the IC50 in the test on HCT 116 cell line was 20 µM.

With `c1ccc(Nc2cc(-c3csc4ccccc34)[nH]n2)cc1` [Compound B], the figures for the Ki on CDK2/cyclin A complex and on CDK4/cyclin D3 complex were 6.2 µM and 3.1 µM, respectively. Moreover, the inhibition at 5 µM in test [1] stood at 21%.

In the case of `c1ccc(Nc2cc(-c3cccs3)[nH]n2)cc1` [Compound A, Phenyl-(5-thiophen-2-yl-1H-pyrazol-3-yl)-amine], the Ki on CDK2/cyclin A complex was 25.8 µM; on CDK4/cyclin D3 complex, 26.2 µM. For the same compound, in test [1], the inhibition at 5 µM came out at 10%.

On to `NS(=O)(=O)c1ccc(Nc2cc(-c3csc4ccccc34)[nH]n2)cc1` [Compound O], for which the Ki stood at 0.062 µM at CDK2/cyclin A complex and 1.6 µM at CDK4/cyclin D3 complex. Besides, the IC50 in the test on HCT 116 cell line is 9.5 µM. In the test on HCT 116 cell line (read-out: HCT116 IC 90), the IC90 was found to be 24 µM.
